According to the supplement of paper PMC8149375:

How the values were obtained:
Details in all cases: treatment: drug alone; 5 days
[1] = test system: SN12C; experiment: minimum viability across doses, drug alone, relative to DMSO (fraction); higher = less growth inhibition
Method: (§1)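 Primary HTS: 8 RCC cell lines treated with 8 doses (up to 10 uM) of each library drug alone for 5 days; viability read by CellTiter-Glo and normalised to DMSO. GI50 was fitted with XLfit (4-parameter), AUC is the area under the dose-response curve, and minimum viability is the lowest fraction of DMSO viability across doses.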

[2] = test system: ACHN; experiment: as above
Method: as §1

[3] = test system: 786-O; experiment: as above
Method: as §1

[4] = test system: 769-P; experiment: as above
Method: as §1

[5] = test system: UO-31; experiment: as above
Method: as §1

[6] = test system: TK-10; experiment: as above
Method: as §1

[7] = test system: CAKI-1; experiment: as above
Method: as §1

[8] = test system: A498; experiment: as above
Method: as §1

[9] = test system: SN12C; experiment: AUC of dose-response viability curve, drug alone (arbitrary (AUC of normalised viability)); higher = less growth inhibition
Method: as §1

[10] = test system: ACHN; experiment: as above
Method: as §1

[11] = test system: 786-O; experiment: as above
Method: as §1

[12] = test system: 769-P; experiment: as above
Method: as §1

[13] = test system: UO-31; experiment: as above
Method: as §1

[14] = test system: TK-10; experiment: as above
Method: as §1

[15] = test system: CAKI-1; experiment: as above
Method: as §1

[16] = test system: A498; experiment: as above
Method: as §1

[17] = test system: SN12C; experiment: GI50, drug alone; higher = less potent
Method: as §1

[18] = test system: ACHN; experiment: GI50, drug alone; higher = less potent
Method: as §1

[19] = test system: 786-O; experiment: GI50, drug alone; higher = less potent
Method: as §1

[20] = test system: 769-P; experiment: GI50, drug alone; higher = less potent
Method: as §1

[21] = test system: UO-31; experiment: GI50, drug alone; higher = less potent
Method: as §1

[22] = test system: TK-10; experiment: GI50, drug alone; higher = less potent
Method: as §1

[23] = test system: CAKI-1; experiment: GI50, drug alone; higher = less potent
Method: as §1

[24] = test system: A498; experiment: GI50, drug alone; higher = less potent
Method: as §1

Row | SMILES | minimum viability across doses [1] | minimum viability across doses [2] | minimum viability across doses [3] | minimum viability across doses [4] | minimum viability across doses [5] | minimum viability across doses [6] | minimum viability across doses [7] | minimum viability across doses [8] | AUC of dose-response viability curve [9] | AUC of dose-response viability curve [10] | AUC of dose-response viability curve [11] | AUC of dose-response viability curve [12] | AUC of dose-response viability curve [13] | AUC of dose-response viability curve [14] | AUC of dose-response viability curve [15] | AUC of dose-response viability curve [16] | GI50, drug alone [17] [µM] | GI50, drug alone [18] [µM] | GI50, drug alone [19] [µM] | GI50, drug alone [20] [µM] | GI50, drug alone [21] [µM] | GI50, drug alone [22] [µM] | GI50, drug alone [23] [µM] | GI50, drug alone [24] [µM]
1 | c1ccc2c(CCNc3ccc(Nc4ccncc4)cc3)c[nH]c2c1 | 0.0036 | 0.00286 | 0.00353 | 0.0434 | 0.00809 | 0.00837 | 0.0912 | 0.022 | 2.28 | 1.55 | 0.978 | 2.32 | 1.6 | 2.34 | 2.31 | 2.76 | 0.881 | 0.136 | > 10 | 0.532 | 0.115 | 1.03 | 0.66 | 1.36
2 | O=c1cc(N2CCOCC2)oc2c(-c3ccccc3)cccc12 | 0.765 | 0.723 | 0.559 | 0.617 | 0.858 | 0.684 | 0.642 | 0.929 | 3.36 | 2.91 | 2.62 | 3.1 | 3.98 | 2.97 | 3.37 | 3.75 | > 10 | > 10 | > 10 | > 10 | > 10 | > 10 | > 10 | > 10
3 | O=c1cc(-c2cccc3c2Sc2ccccc2S3)oc(N2CCOCC2)c1 | 0.864 | 0.496 | 0.638 | 0.864 | 0.981 | 0.791 | 0.648 | 0.864 | 3.23 | 2.57 | 2.98 | 3.21 | 4 | 3.14 | 3.06 | 3.49 | > 10 | 0.0705 | > 10 | > 10 | > 10 | > 10 | > 10 | > 10
4 | C=CC(=O)N1CCC[C@@H](n2nc(-c3ccc(Oc4ccccc4)cc3)c3c(N)ncnc32)C1 | 0.706 | 0.394 | 0.529 | 0.301 | 0.949 | 0.225 | 0.335 | 0.946 | 2.88 | 2.53 | 2.3 | 2.53 | 4.29 | 2.31 | 3.19 | 6.43 | > 10 | 3.93 | > 10 | 1.83 | > 10 | 1.43 | 7.05 | > 10
5 | Cc1cc(Nc2cc(CN3CCOCC3)c3nc(C)c(Cc4ccc(Cl)cc4F)n3n2)[nH]n1 | 0.216 | 0.103 | 0.00692 | 0.063 | 0.0145 | 0.0389 | 0.0334 | 0.338 | 2.89 | 2.79 | 1.96 | 3.12 | 4.69 | 2.8 | 3.03 | 4.33 | 3.84 | 1.98 | 0.3 | 4.13 | 7.64 | 3.03 | 2.28 | 8.52
6 | CN1CCN(c2ccc([N+](=O)[O-])c3no[n+]([O-])c23)CC1 | 0.832 | 0.822 | 0.536 | 0.865 | 0.867 | 0.3 | 0.881 | 0.889 | 3.13 | 2.98 | 2.38 | 2.59 | 3.8 | 2.91 | 3.27 | 3.92 | > 10 | > 10 | > 10 | > 10 | > 10 | > 10 | > 10 | > 10
7 | CC(C)(C)Cn1c(N)nc2ccc(-c3[nH]c(C(C)(C)C)nc3-c3ccc(F)cc3)nc21.CS(=O)(=O)O.CS(=O)(=O)O | 0.811 | 0.407 | 0.636 | 0.709 | 0.733 | 0.564 | 0.512 | 0.972 | 3.15 | 2.41 | 2.91 | 2.98 | 3.5 | 2.43 | 2.63 | 4.16 | > 10 | 2.19 | > 10 | > 10 | > 10 | 6.63 | 8.16 | > 10
8 | CC(=O)c1c(C)c2cnc(Nc3ccc(N4CCNCC4)cn3)nc2n(C2CCCC2)c1=O.Cl | 0.427 | 0.136 | 0.298 | 0.0631 | 0.549 | 0.185 | 0.123 | 0.644 | 3.17 | 2.04 | 2.8 | 2.31 | 4.32 | 2.43 | 2.44 | 4.74 | 7.21 | 0.36 | 3.88 | 0.659 | > 10 | 1.44 | 0.811 | > 10
9 | COc1ccc(-c2ccc3c(N4CCOCC4)nc(N4C[C@@H](C)O[C@@H](C)C4)nc3n2)cc1CO | 0.223 | 0.141 | 0.26 | 0.214 | 0.012 | 0.222 | 0.174 | 0.379 | 2.49 | 2.23 | 2.03 | 2.66 | 2.98 | 2.23 | 2.53 | 3.62 | 1.36 | 0.592 | 0.772 | 2.12 | 1.63 | 0.724 | 1.08 | 4.9
10 | Cn1cc(-c2ccc3nnc(C(F)(F)c4ccc5ncccc5c4)n3n2)cn1 | 0.93 | 0.792 | 0.862 | 0.868 | 1.12 | 0.799 | 0.59 | 1.05 | 3.44 | 3.24 | 3.59 | 3.38 | 4.62 | 3.33 | 2.4 | 4.15 | > 10 | > 10 | > 10 | > 10 | > 10 | > 10 | > 10 | > 10
